Test results taken from patent US20230278995A1, “1,3,4-OXADIAZOLE DERIVATIVE COMPOUNDS AS HISTONE DEACETYLASE 6 INHIBITOR, AND THE PHARMACEUTICAL COMPOSITION COMPRISING THE SAME” (CHONG KUN DANG PHARMACEUTICAL CORP., priority 2020, published 2023).

Key:
human recombinant HDAC6 = biological target: T1, human recombinant HDAC6 (Homo sapiens, UniProt Q9UBN7); experiment: HDAC enzyme activity inhibition assay (HDAC Fluorimetric Drug Discovery Kit), HDAC6; assay type: biochemical; details: for HDAC6 selectivity (fold): HDAC1 vs HDAC6; for IC50: human recombinant HDAC6, same protocol as HDAC1
T1 construct: purchased Calbiochem Inc. 382180
T1 sequence (Q9UBN7 1-1215): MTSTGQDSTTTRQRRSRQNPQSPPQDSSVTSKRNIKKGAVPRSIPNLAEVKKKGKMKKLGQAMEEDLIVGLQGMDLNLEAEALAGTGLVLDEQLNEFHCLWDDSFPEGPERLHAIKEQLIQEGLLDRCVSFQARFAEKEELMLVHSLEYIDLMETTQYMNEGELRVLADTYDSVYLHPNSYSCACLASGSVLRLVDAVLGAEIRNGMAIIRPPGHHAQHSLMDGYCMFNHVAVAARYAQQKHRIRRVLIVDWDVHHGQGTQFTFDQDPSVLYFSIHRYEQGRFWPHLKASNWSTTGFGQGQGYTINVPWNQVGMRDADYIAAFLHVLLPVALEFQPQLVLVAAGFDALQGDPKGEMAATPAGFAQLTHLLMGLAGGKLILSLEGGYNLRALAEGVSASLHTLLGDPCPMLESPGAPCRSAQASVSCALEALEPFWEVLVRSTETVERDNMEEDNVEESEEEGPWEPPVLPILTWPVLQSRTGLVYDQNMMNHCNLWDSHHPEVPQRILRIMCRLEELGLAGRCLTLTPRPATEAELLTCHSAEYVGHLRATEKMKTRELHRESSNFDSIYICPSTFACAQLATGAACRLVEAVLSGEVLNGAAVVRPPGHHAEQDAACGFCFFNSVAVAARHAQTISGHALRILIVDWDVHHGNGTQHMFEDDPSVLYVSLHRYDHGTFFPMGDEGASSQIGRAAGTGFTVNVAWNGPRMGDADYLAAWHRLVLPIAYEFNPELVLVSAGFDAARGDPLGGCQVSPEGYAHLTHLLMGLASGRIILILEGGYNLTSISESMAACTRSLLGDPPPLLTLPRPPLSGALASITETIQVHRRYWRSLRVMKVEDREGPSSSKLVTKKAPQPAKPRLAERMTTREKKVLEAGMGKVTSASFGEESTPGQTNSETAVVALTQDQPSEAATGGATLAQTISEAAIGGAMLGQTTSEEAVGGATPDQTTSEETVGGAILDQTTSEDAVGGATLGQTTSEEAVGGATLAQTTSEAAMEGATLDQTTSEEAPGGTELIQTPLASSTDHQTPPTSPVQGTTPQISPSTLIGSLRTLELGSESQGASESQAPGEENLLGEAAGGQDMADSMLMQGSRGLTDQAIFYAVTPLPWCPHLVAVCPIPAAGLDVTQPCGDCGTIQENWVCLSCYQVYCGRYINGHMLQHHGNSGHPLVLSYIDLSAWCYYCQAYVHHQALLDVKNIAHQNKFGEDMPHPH
Description: (§1) For the HDAC1 enzyme activity test, human recombinant HDAC1 (BML-SE456) was used as an enzyme source and Fluor de Lys©-SIRT1 (BNL-K1177) was used as a substrate. After dispensing 5-fold diluted compounds into a 96-well plate, 0.3 μg of enzyme and 10 μM substrate were added to each well of the plate and allowed to react at 30° C. for 60 minutes. Next, Fluor de Lys© Developer II (BML-K1176) was added and reacted for 30 minutes to complete the reaction, and then the fluorescence values (Ex 360, Em 460) were measured using a multi-plate reader (Flexstation 3, Molecular Device). The HDAC6 enzymes were tested using human recombinant HDAC6 (382180) from Calbiochem Inc., according to the same protocol as the HDAC1 enzyme activity test method. With respect to the final result values, respective IC50 values were calculated using GraphPad Prism 4.0 program (Table 2).

human recombinant HDAC1 = biological target: T2, human recombinant HDAC1 (Homo sapiens, UniProt Q13547); experiment: HDAC enzyme activity inhibition assay (HDAC Fluorimetric Drug Discovery Kit), HDAC1; assay type: biochemical; details: human recombinant HDAC1, Fluor de Lys-SIRT1 substrate, 30° C. 60 minutes
T2 construct: purchased Enzo Life Sciences, Inc. BML-SE456
T2 sequence (Q13547 whole entry): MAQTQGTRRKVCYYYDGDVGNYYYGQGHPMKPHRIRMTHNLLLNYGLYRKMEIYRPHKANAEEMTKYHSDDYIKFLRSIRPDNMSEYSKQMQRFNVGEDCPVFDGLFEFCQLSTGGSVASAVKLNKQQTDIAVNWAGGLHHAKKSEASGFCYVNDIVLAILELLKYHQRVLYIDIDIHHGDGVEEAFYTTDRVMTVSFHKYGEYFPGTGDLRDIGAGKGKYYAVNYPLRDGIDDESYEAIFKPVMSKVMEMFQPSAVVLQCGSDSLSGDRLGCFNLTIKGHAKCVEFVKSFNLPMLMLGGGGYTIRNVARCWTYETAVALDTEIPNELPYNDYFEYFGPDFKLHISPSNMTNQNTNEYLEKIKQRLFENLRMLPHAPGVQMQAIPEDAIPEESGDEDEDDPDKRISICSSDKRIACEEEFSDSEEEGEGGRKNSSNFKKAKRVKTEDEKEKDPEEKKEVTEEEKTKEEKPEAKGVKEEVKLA
Description: as §1

Row | HDAC6 selectivity (fold) (human recombinant HDAC6) | IC50 (human recombinant HDAC6) | IC50 (human recombinant HDAC1) | SMILES
1 | 1,695 fold | 21.6 nM | 36600 nM | CCN1CCC(N2CC(F)(C(=O)N(Cc3ccc(-c4nnc(C(F)F)o4)cn3)c3cccc(F)c3)C2)CC1 [Compound 3400, N-((5-(5-(difluoromethyl)-1,3,4-oxadiazol-2-yl)pyridin-2-yl)methyl)-1-(1-ethylpiperidin-4-yl)-3-fluoro-N-(3-fluorophenyl)azetidine-3-carboxamide]
2 | 504 fold | 99.1 nM | > 50000 nM | CC(C)N1CCC(F)(C(=O)N(Cc2ccc(-c3nnc(C(F)F)o3)cn2)c2ccccc2)CC1 [Compound 2952, N-((5-(5-(difluoromethyl)-1,3,4-oxadiazol-2-yl)pyridin-2-yl)methyl)-4-fluoro-1-isopropyl-N-phenylpiperidine-4-carboxamide]
3 | 1,612 fold | 31 nM | > 50000 nM | CN(C)CCC(=O)N1CC(F)(C(=O)N(Cc2ccc(-c3nnc(C(F)F)o3)cn2)c2cccc(F)c2)C1 [Compound 3097, N-((5-(5-(difluoromethyl)-1,3,4-oxadiazol-2-yl)pyridin-2-yl)methyl)-1-(3-(dimethylamino)propanoyl)-3-fluoro-N-(3-fluorophenyl)azetidine-3-carboxamide]
4 | 801 fold | 62.4 nM | > 50000 nM | O=C(N(Cc1ccc(-c2nnc(C(F)F)o2)cn1)c1ccccc1)C1(F)CN(C2CCCCC2)C1 [Compound 2999, 1-cyclohexyl-N-((5-(5-(difluoromethyl)-1,3,4-oxadiazol-2-yl)pyridin-2-yl)methyl)-3-fluoro-N-phenylazetidine-3-carboxamide]
5 | 543 fold | 80.9 nM | 44000 nM | O=C(N(Cc1ccc(-c2nnc(C(F)F)o2)cn1)c1ccccc1)C1(F)CCN(C2CCC2)CC1 [Compound 2953, 1-cyclobutyl-N-((5-(5-(difluoromethyl)-1,3,4-oxadiazol-2-yl)pyridin-2-yl)methyl)-4-fluoro-N-phenylpiperidine-4-carboxamide]
6 | 2,155 fold | 23.2 nM | > 50000 nM | CCC(=O)N1CC(F)(C(=O)N(Cc2ccc(-c3nnc(C(F)F)o3)cn2)c2cccc(F)c2)C1 [Compound 3163, N-((5-(5-(difluoromethyl)-1,3,4-oxadiazol-2-yl)pyridin-2-yl)methyl)-3-fluoro-N-(3-fluorophenyl)-1-propionylazetidine-3-carboxamide]
7 |  |  | > 50000 nM | O=C(N(Cc1ccc(-c2nnc(C(F)F)o2)cn1)c1cccc(F)c1)C1(F)CN(C2CCCC2)C1 [Compound 3051, 1-cyclopentyl-N-((5-(5-(difluoromethyl)-1,3,4-oxadiazol-2-yl)pyridin-2-yl)methyl)-3-fluoro-N-(3-fluorophenyl)azetidine-3-carboxamide]
8 | 302 fold | 166 nM | > 50000 nM | CC(=O)N1CCC(F)(C(=O)N(Cc2ccc(-c3nnc(C(F)F)o3)cc2F)c2ccccc2)CC1 [Compound 3438, 1-acetyl-N-(4-(5-(difluoromethyl)-1,3,4-oxadiazol-2-yl)-2-fluorobenzyl)-4-fluoro-N-phenylpiperidine-4-carboxamide]
9 | 1,170 fold | 42.7 nM | > 50000 nM | CN1CCC(N2CC(F)(C(=O)N(Cc3ccc(-c4nnc(C(F)F)o4)cn3)c3ccccc3)C2)CC1 [Compound 3110, N-((5-(5-(difluoromethyl)-1,3,4-oxadiazol-2-yl)pyridin-2-yl)methyl)-3-fluoro-1-(1-methylpiperidin-4-yl)-N-phenylazetidine-3-carboxamide]
10 | 441 fold | 113 nM | > 50000 nM | CC(C)C(=O)N1CC(F)(C(=O)N(Cc2ccc(-c3nnc(C(F)F)o3)cc2F)c2ccccc2)C1 [Compound 3434, N-(4-(5-(difluoromethyl)-1,3,4-oxadiazol-2-yl)-2-fluorobenzyl)-3-fluoro-1-isobutyryl N-phenylazetidine-3-carboxamide]
11 | 2,403 fold | 20.8 nM | > 50000 nM | CCCCN1CCC(N2CC(F)(C(=O)N(Cc3ccc(-c4nnc(C(F)F)o4)cn3)c3cccc(F)c3)C2)CC1 [Compound 3402, 1-(1-butylpiperidin-4-yl)-N-((5-(5-(difluoromethyl)-1,3,4-oxadiazol-2-yl)pyridin-2-yl)methyl)-3-fluoro-N-(3-fluorophenyl)azetidine-3-carboxamide]
12 | 2,808 fold | 17.8 nM | > 50000 nM | O=C(C1CCCC1)N1CC(F)(C(=O)N(Cc2ccc(-c3nnc(C(F)F)o3)cn2)c2cccc(F)c2)C1 [Compound 3169, 1-(cyclopentanecarbonyl)-N-((5-(5-(difluoromethyl)-1,3,4-oxadiazol-2-yl)pyridin-2-yl)methyl)-3-fluoro-N-(3-fluorophenyl)azetidine-3-carboxamide]
13 | 885 fold | 32.2 nM | 28500 nM | CN1CC(N2CCC(F)(C(=O)N(Cc3ccc(-c4nnc(C(F)F)o4)cn3)c3cccc(F)c3)CC2)C1 [Compound 3389, N-((5-(5-(difluoromethyl)-1,3,4-oxadiazol-2-yl)pyridin-2-yl)methyl)-4-fluoro-N-(3-fluorophenyl)-1-(1-methylazetidine-3-yl)piperidine-4-carboxamide]
14 | 1,272 fold | 39.3 nM | > 50000 nM | CCN1CC(N2CC(F)(C(=O)N(Cc3ccc(-c4nnc(C(F)F)o4)cn3)c3cccc(F)c3)C2)C1 [Compound 3220, N-((5-(5-(difluoromethyl)-1,3,4-oxadiazol-2-yl)pyridin-2-yl)methyl)-1′-ethyl-3-fluoro-N-(3-fluorophenyl)-[1,3′-biazetidine]-3-carboxamide]
15 | 1,054 fold | 47.4 nM | > 50000 nM | CC(C)N1CC(F)(C(=O)N(Cc2ccc(-c3nnc(C(F)F)o3)cn2)c2ccccc2)C1 [Compound 2974, N-((5-(5-(difluoromethyl)-1,3,4-oxadiazol-2-yl)pyridin-2-yl)methyl)-3-fluoro-1-isopropyl-N-phenylazetidine-3-carboxamide]
16 | 773 fold | 32.9 nM | 25400 nM | CC(C)N1CCC(N2CC(F)(C(=O)N(Cc3ccc(-c4nnc(C(F)F)o4)cn3)c3cccc(F)c3)C2)CC1 [Compound 3404, N-((5-(5-(difluoromethyl)-1,3,4-oxadiazol-2-yl)pyridin-2-yl)methyl)-3-fluoro-N-(3-fluorophenyl)-1-(1-isopropylpiperidin-4-yl)azetidine-3-carboxamide]
17 |  |  | > 50000 nM | O=C(N1CCC(F)(C(=O)N(Cc2ccc(-c3nnc(C(F)F)o3)cc2F)c2ccccc2)CC1)C(F)(F)F [Compound 3441, N-(4-(5-(difluoromethyl)-1,3,4-oxadiazol-2-yl)-2-fluorobenzyl)-4-fluoro-N-phenyl-1-(2,2,2-trifluoroacetyl)piperidine-4-carboxamide]
18 |  |  | > 20000 nM | O=C(N(Cc1ccc(-c2nnc(C(F)F)o2)cc1F)c1ccccc1)C1(F)CCN(C2CCC2)CC1 [Compound 2868, 1-cyclobutyl-N-(4-(5-(difluoromethyl)-1,3,4-oxadiazol-2-yl)-2-fluorobenzyl)-4-fluoro-N-phenylpiperidine-4-carboxamide]
19 |  |  | > 50000 nM | COCCC(=O)N1CC(F)(C(=O)N(Cc2ccc(-c3nnc(C(F)F)o3)cn2)c2cccc(F)c2)C1 [Compound 3167, N-((5-(5-(difluoromethyl)-1,3,4-oxadiazol-2-yl)pyridin-2-yl)methyl)-3-fluoro-N-(3-fluorophenyl)-1-(3-methoxypropanoyl)azetidine-3-carboxamide]
